Here are results for three substances from publication PMC8534003, “The Chemokine-Based Peptide, CXCL9(74-103), Inhibits Angiogenesis by Blocking Heparan Sulfate Proteoglycan-Mediated Signaling of Multiple Endothelial Growth Factors” (Cancers, 2021).

Test [1] deals with human microvascular endothelial cells (HMVECs). As to the kind of experiment: xCELLigence chemotaxis assay (HMVEC migration). Type of test: cell-based. Conditions: EGF 10 ng/mL, FGF-2 30 ng/mL or VEGF165 10 ng/mL in lower chamber. Here is the method:
To evaluate the effect of the CXCL9-derived peptides on growth factor-induced endothelial cell migration, the xCELLigence® real-time cell analyzer (RTCA DP) system (ACEA Biosciences, Inc.; San Diego, CA, USA) was used. First, 160 µL MCDB131 medium (Gibco) supplemented with 0.4% (v/v) FCS (control medium) or 160 µL control medium with 30 ng/mL FGF-2, 10 ng/mL VEGF165 or 10 ng/mL EGF were added to the lower chamber of a cell invasion/migration (CIM)-Plate (ACEA Biosciences, Inc.). After assembly of the lower and upper chamber, 50 µL of serum-free MCDB131 medium was added in the upper wells. Following equilibration of the plate at 37 °C for 1 h, HMVECs were added in the upper chamber at 4 × 10^4 cells in 100 µL/well. CXCL9(74-103) or CXCL9(86-103) was added together with the cells in the upper compartment at a concentration of 0.3 or 3 µM. The assembled CIM-Plate was left at room temperature for 30 min to allow the cells to settle onto the membrane. Finally, the plate was placed in the instrument at 37 °C to monitor cell migration for 15 h. Cell migration from one compartment to the other was recorded (one recording every minute) as changes in electrical impedance. These changes were converted into cell indices, as a measure of cell migration.

Test [2] shares this test system. As to the kind of experiment: Endothelial cell proliferation assay (MTT or ATP lite). The format is cell-based. The conditions noted are these: EGF, VEGF165 5 ng/mL or FGF-2 3 ng/mL as single stimulus. The protocol:
The ability of the CXCL9-derived peptides to inhibit growth factor-induced proliferation of endothelial cells was assessed. HMVECs were seeded at 5 × 10^3 cells/well in EBM™-2 medium containing 1% (v/v) FCS (proliferation medium). After settling of the cells, they were stimulated with EGF, VEGF165 (both 5 ng/mL) or FGF-2 (3 ng/mL) as a single stimulus or in combination with CXCL9(86-103) or CXCL9(74-103) at 0.3 or 3 µM in proliferation medium or left untreated. HMVECs were also treated with 0.3 or 3 µM of CXCL9(74-103) or 3 µM of CXCL9(86-103) alone to assess the effect of CXCL9-derived peptide treatment on spontaneous proliferation. After 3 to 4 days, a 3-(4,5-dimethylthiazol-2-yl)-2,5-diphenyl tetrazolium bromide (MTT) or ATP lite assay was performed. The ATP lite assay was performed according to the manufacturer’s instructions (Perkin Elmer, Waltham, MA). When MTT was used as substrate, the medium was replaced with 200 µL of MTT solution (RPMI without phenol red containing 0.4 g/L MTT) and the cells were incubated at 37 °C and 5% CO2 in the dark for 4 hours. Then, the MTT solution was discarded and the formed formazan crystals were dissolved in 200 µL acidic propanol [0.04 M HCl, 0.1% (v/v) NP-40 in isopropanol] under continuous shaking in the dark for 10 min. The optical densities were measured at 570 nm and 630 nm (reference wavelength).

A further test relates to phospho-ERK1/2. As to the kind of experiment: Signal transduction assay, EGF-induced ERK phosphorylation in HMVECs (ELISA). Conditions: EGF 10 ng/mL, 15 min, compared to control (100%), n ≥ 3. Type of test: cell-based, human. The protocol: HMVECs and MECs were seeded in 6-well plates at 1.25 × 10^5 cells/well in their respective culture medium. Once the cell density reached 70–80% confluency, the cells were starved in serum-free medium overnight. Fifteen minutes prior to stimulation, cells were incubated with various concentrations of CXCL9(74-103) or CXCL9(86-103) in 0.5% (v/v) BSA in MCDB131 or DMEM medium (assay medium for HMVECs and MECs, respectively) at 37 °C. HMVECs and MECs were stimulated with assay medium alone or supplemented with 10 ng/mL EGF or 5 ng/mL murine VEGF165 at 37 °C for 15 or 5 min, respectively. Then, the cells were placed on ice, washed with ice-cold PBS and 90 µL of lysis buffer [1% (v/v) protease inhibitor cocktail, phosphatase inhibitor cocktail 2 and 3 (all Sigma-Aldrich) in 1 mM ethylenediaminetetraacetic acid (EDTA), 0.5% (v/v) Triton™ X-100, 5 mM NaF, 6 M urea in PBS] was added per well. […] The amount of phospho-ERK1/2 in the cell lysates was determined using an ERK1 (Thr202/Tyr204)/ERK2 (Thr185/Tyr187) ELISA duoset (R&D Systems) according to the manufacturer’s instructions. The amount of phosphorylated ERK was normalized to the total protein content in the samples measured by the Pierce™ bicinchoninic acid (BCA) protein assay kit (Thermo Fisher Scientific).
For orientation: An ELISA detects its analyte on a solid surface through an enzyme-linked reagent.

Test [3] concerns FGF-2-induced angiogenesis, C57BL/6 mice. As to the kind of experiment: In vivo angiogenesis Matrigel plug assay. Further details: species or system mouse. The conditions noted are these: 180 ng FGF-2 alone, day 7. Here is the method:
Six-to-eight-week-old female C57BL/6 mice were anesthetized with a mixture of 2.5 mg/mL xylazine (V.M.D, Inovet, Arendonk, Belgium) and 37.5 mg/mL ketamine (Dechra, Northwich, UK) in PBS by i.p. injection. A vertical dorsal incision was made and an ALZET osmotic pump (model 1007D, DURECT Corporation, Cupertine, CA, USA) filled with 400 µg/100 µL CXCL9(74-103) or 100 µL PBS was subcutaneously (s.c.) implanted. The incision was closed with a surgical suture. Growth factor-reduced Matrigel (Corning Matrigel Growth Factor (GFR) Basement Membrane Matrix, Phenol Red-Free, LDEV-Free; Corning Life Sciences, Amsterdam, The Netherlands) was s.c. injected in the dorsal flank forming a firm plug (600 µL/plug). The Matrigel was either injected as such (control plugs) or supplemented with 300 µg CXCL9(74-103) and/or 180 ng FGF-2. Seven days later, the mice were sacrificed. Thirty minutes before sacrifice, the mice were i.v. injected with 200 µL (25 mg/kg) FITC-labeled 2000 kDa dextran (Sigma-Aldrich) to quantify vessel formation in the Matrigel plugs. Blood was collected through cardiac puncture into heparinized tubes containing 20 µL heparin (5.000 IE/mL, Leo Pharma, Ballerup, Denmark). The blood was centrifuged at 200 g and 4 °C for 10 min, whereafter the supernatant was centrifuged at 3000 g and 4 °C for 10 min. The collected plasma was stored away from light at 4 °C until analysis. The Matrigel plugs were removed and enzymatically and mechanically digested in 1.2 mL dispase (Corning Life Sciences) using an incubation at 37 °C for 1.5 h and the gentleMACS™ Dissociator (Miltenyi Biotec, Bergisch Gladbach, Germany). The digested Matrigel plugs were filtered through a 70 µm cell strainer, washed with 1.5 mL FACS buffer [2% (v/v) FCS + 2 mM EDTA in PBS] and centrifuged at 300 g and 4 °C for 7 min. The supernatant (SN) was centrifuged again at 300 g and 4 °C for 7 min and the SN was retained away from light at 4 °C until analysis. The pellet was resuspended in 1 mL FACS buffer, the cells were counted and used for flow cytometry. The antibodies used to identify endothelial cells were anti-mouse CD45-APC (clone 30-F11, eBioscience, Thermo Fisher Scientific), anti-mouse CD146-PE (clone ME-9F1) and anti-mouse Pan-endothelial Cell Antigen-BV711 (clone MECA-32) antibodies (both BD Biosciences). Mice experiments were approved by the Ethical Committee of KU Leuven (project number P199/2018).

A further test relates to HMVEC spheroids. In words: Spheroid sprouting assay. The conditions noted are these: FGF-2 10 ng/mL, 16 hours. Type of test: cell-based, human. The protocol: A 1:5 mixture of endothelial cells (4 × 10^4 cells/mL) and methylcellulose (Sigma-Aldrich, Saint Louis, MO, USA; 12 mg/mL in EBM™-2 basal medium) in EBM™-2 cell culture medium was prepared. Drops of 1 × 10^3 HMVECs were plated on a petri dish and allowed to form single spheroids in hanging droplets at 37 °C, 5% CO2 for 24 h. Spheroids were collected, sedimented by centrifugation and resuspended in a mixture of 24 mg/mL methylcellulose in basal EBM™-2, 1 mg/mL collagen type I (BD Biosciences, San Jose, CA, USA), 2.5 mg/mL NaHCO3 and 10 mM NaOH. The suspension was plated in a 96-well plate and the collagen was allowed to polymerize at 37 °C, 5% CO2 for 30 min. Spheroids were left untreated or stimulated with 0.3 or 3 µM of CXCL9(74-103) or 3 µM of CXCL9(86-103) for 15 min prior to addition of 10 ng/mL FGF-2 or 10 ng/mL EGF in EBM™-2 + 3% (v/v) FCS. In some experiments, HMVECs were pretreated with heparinase II (vide infra). After 16 hours, spheroid sprouting was assessed with an inverted Axiovert 200M microscope (Zeiss, Germany) through a 10× objective. The average number of sprouts was calculated and the average sprout length per spheroid was measured using Fiji software.
Sprouting experiments examining the dependency on HS binding for the inhibitory action of CXCL9(74-103) were performed as described above (vide supra). […]

The subject of test [4] is cell surface HS on HMVECs. As to the kind of experiment: Cellular HS binding of TAMRA-labeled CXCL9(74-103), flow cytometry. More on the design: species or system human. The conditions noted are these: 1 representative of 3 experiments. The protocol: CXCL9(74-103) binding to cellular HS was assessed via flow cytometry. HMVECs were either left untreated or incubated with 0.75 U/mL heparinase II (Sigma-Aldrich) at 37 °C for 2 h. Cells were harvested and left at room temperature for 1 h to recuperate, they were then placed on ice and centrifuged. After centrifugation (300 g, 4 °C, 7 min) and resuspension in PBS, 1 × 10^5 cells per condition were stained with 3, 0.6 or 0.12 nM TAMRA-labeled CXCL9(74-103). To verify downregulation of HS expression, cells were stained with mouse anti-HS Ab (clone F58-10E4, Cat No 370255-S; Amsbio, Abingdon, UK) and R-PE goat anti-mouse IgM Ab (Cat No 115-116-075; Jackson ImmunoResearch, Westgrove, PA, USA). Flow cytometric analysis was performed using the BD LSRFortessa™ X-20 flow cytometer and FlowJo software (both BD Biosciences).

Where no end group is shown, it is not given here. TAMRA = 5(6)-carboxytetramethylrhodamine

As for “EGF: human recombinant EGF (R&D Systems), stimulus”, the “enhancement of migration by growth factor alone” value in test [1] is listed as “significant enhancement of endothelial cell migration”. For the same substance, in test [2], the “enhancement of proliferation by growth factor alone” value is “significant enhancement of proliferation”. This substance yielded a phospho-ERK content in the test on phospho-ERK1/2 of 247%.
Regarding “FGF-2: human recombinant FGF-2 (R&D Systems), stimulus”, in test [3], the “CD146+MECA-32+ cell population, FGF-2 compared to control” value is about 3 fold; the “fluorescence ratio, FGF-2 plug compared to control” value is “doubled the fluorescence ratio compared to the control”; the “number of cells inside plug, FGF-2 compared to control” value is reported as about 3 fold. Further, the “sprouting in response to FGF-2 alone” value in the test on HMVEC spheroids is recorded as “pronounced endothelial sprouting”. Besides, the “enhancement of migration by growth factor alone” value in test [1] was “significant enhancement of endothelial cell migration”. In test [2], the “enhancement of proliferation by growth factor alone” value is listed as “significant enhancement of proliferation”.
Consider “TAMRA-labeled CXCL9(74-103): CXCL9(74-103) fluorescently labeled at the NH2-terminus with 5(6)-carboxytetramethylrhodamine ({TAMRA}-KKKQKNGKKHQKKKVLKVRKSQRSRQKKTT; UniProt Q07325 96-125, looked up, fragment)”, for which, in test [4] (3, 0.6 or 0.12 nM TAMRA-labeled peptide), the “binding to untreated HMVECs” value was “bound CXCL9(74-103) in a concentration-dependent manner”. Further, the “binding to heparinase II-treated HMVECs” value in test [4] (heparinase II 0.75 U/mL, 37 °C, 2 h, 3, 0.6 or 0.12 nM) is reported as “bound CXCL9(74-103) less efficiently compared to cells with intact HS”.
